Source: the supplement of paper PMC10307832

Legend:
Assay in all cases: relative viability (nuclei count vs DMSO), 5 days (fraction); higher = more cells survive
NCI-H1792 = tested on: NCI-H1792
Summary of the method: (§1)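 Relative viability equals treated-well nuclei counts divided by vehicle-well nuclei counts. Counts came from 4× images of lung cancer cell lines grown in 1536-well plates for 5 days after pin-tool dosing on the day after seeding. Dosing used one drug alone or a fixed anchor-drug dose plus five library-drug doses (not always all listed) in √10 steps, and values are medians of duplicate plates.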

NCI-H2405 = tested on: NCI-H2405
Summary of the method: as §1

HCC-44 = tested on: HCC-44
Summary of the method: as §1

UMC-11 = tested on: UMC-11
Summary of the method: as §1

NCI-H838 = tested on: NCI-H838
Summary of the method: as §1

NCI-H520 = tested on: NCI-H520
Summary of the method: as §1

LC-2-ad = tested on: LC-2-ad
Summary of the method: as §1

CAL-12T = tested on: CAL-12T
Summary of the method: as §1

NCI-H1395 = tested on: NCI-H1395
Summary of the method: as §1

LCLC-97TM1 = tested on: LCLC-97TM1
Summary of the method: as §1

SW 1573 = tested on: SW 1573
Summary of the method: as §1

NCI-H1734 = tested on: NCI-H1734
Summary of the method: as §1

EPLC-272H = tested on: EPLC-272H
Summary of the method: as §1

COR-L 105 = tested on: COR-L 105
Summary of the method: as §1

NCI-H1975 = tested on: NCI-H1975
Summary of the method: as §1

HCC-15 = tested on: HCC-15
Summary of the method: as §1

NCI-H2347 = tested on: NCI-H2347
Summary of the method: as §1

NCI-H2023 = tested on: NCI-H2023
Summary of the method: as §1

NCI-H1915 = tested on: NCI-H1915
Summary of the method: as §1

A-427 = tested on: A-427
Summary of the method: as §1

CCNC(=O)c1noc(-c2cc(C(C)C)c(O)cc2O)c1-c1ccc(CN2CCOCC2)cc1 [Luminespib] + CC1(C)CCC(c2ccc(Cl)cc2)=C(CN2CCN(c3ccc(C(=O)NS(=O)(=O)c4ccc(N[C@H](CCN5CCOCC5)CSc5ccccc5)c(S(=O)(=O)C(F)(F)F)c4)cc3)CC2)C1 [Navitoclax] (partner 0.5 µM)
relative viability (NCI-H1792; first compound 0.002 µM): 0.535 | relative viability (NCI-H1792; first compound 0.006325 µM): 0.497 | relative viability (NCI-H1792; first compound 0.02 µM): 0.539 | relative viability (NCI-H1792; first compound 0.06325 µM): 0.32 | relative viability (NCI-H1792; first compound 0.2 µM): 0.216 | relative viability (NCI-H2405; first compound 0.002 µM): 0.925 | relative viability (NCI-H2405; first compound 0.006325 µM): 0.583 | relative viability (NCI-H2405; first compound 0.02 µM): 0.704 | relative viability (NCI-H2405; first compound 0.06325 µM): 0.188 | relative viability (NCI-H2405; first compound 0.2 µM): 0.143 | relative viability (HCC-44; first compound 0.002 µM): 0.943 | relative viability (HCC-44; first compound 0.006325 µM): 0.99 | relative viability (HCC-44; first compound 0.02 µM): 1.18 | relative viability (HCC-44; first compound 0.06325 µM): 0.957 | relative viability (HCC-44; first compound 0.2 µM): 0.129 | relative viability (UMC-11; first compound 0.002 µM): 0.305 | relative viability (UMC-11; first compound 0.006325 µM): 0.349 | relative viability (UMC-11; first compound 0.02 µM): 0.224 | relative viability (UMC-11; first compound 0.06325 µM): 0.148 | relative viability (UMC-11; first compound 0.2 µM): 0.108 | relative viability (NCI-H838; first compound 0.002 µM): 1.3 | relative viability (NCI-H838; first compound 0.006325 µM): 1.12 | relative viability (NCI-H838; first compound 0.02 µM): 1.07 | relative viability (NCI-H838; first compound 0.06325 µM): 0.18 | relative viability (NCI-H838; first compound 0.2 µM): 0.193 | relative viability (NCI-H520; first compound 0.002 µM): 1.01 | relative viability (NCI-H520; first compound 0.006325 µM): 1 | relative viability (NCI-H520; first compound 0.02 µM): 1.1 | relative viability (NCI-H520; first compound 0.06325 µM): 0.177 | relative viability (NCI-H520; first compound 0.2 µM): 0.167 | relative viability (LC-2-ad; first compound 0.002 µM): 0.41 | relative viability (LC-2-ad; first compound 0.006325 µM): 0.483 | relative viability (LC-2-ad; first compound 0.02 µM): 0.516 | relative viability (LC-2-ad; first compound 0.06325 µM): 0.0848 | relative viability (LC-2-ad; first compound 0.2 µM): 0.126 | relative viability (CAL-12T; first compound 0.002 µM): 1.47 | relative viability (CAL-12T; first compound 0.006325 µM): 1.23 | relative viability (CAL-12T; first compound 0.02 µM): 0.491 | relative viability (CAL-12T; first compound 0.06325 µM): 0.106 | relative viability (CAL-12T; first compound 0.2 µM): 0.116 | relative viability (NCI-H1395; first compound 0.002 µM): 1.42 | relative viability (NCI-H1395; first compound 0.006325 µM): 1.16 | relative viability (NCI-H1395; first compound 0.02 µM): 0.949 | relative viability (NCI-H1395; first compound 0.06325 µM): 0.407 | relative viability (NCI-H1395; first compound 0.2 µM): 0.338 | relative viability (LCLC-97TM1; first compound 0.002 µM): 0.3 | relative viability (LCLC-97TM1; first compound 0.006325 µM): 0.538 | relative viability (LCLC-97TM1; first compound 0.02 µM): 0.31 | relative viability (LCLC-97TM1; first compound 0.06325 µM): 0.411 | relative viability (LCLC-97TM1; first compound 0.2 µM): 0.338 | relative viability (SW 1573; first compound 0.002 µM): 0.927 | relative viability (SW 1573; first compound 0.006325 µM): 0.892 | relative viability (SW 1573; first compound 0.02 µM): 0.803 | relative viability (SW 1573; first compound 0.06325 µM): 0.0809 | relative viability (SW 1573; first compound 0.2 µM): 0.0666 | relative viability (NCI-H1734; first compound 0.002 µM): 0.878 | relative viability (NCI-H1734; first compound 0.006325 µM): 0.698 | relative viability (NCI-H1734; first compound 0.02 µM): 0.777 | relative viability (NCI-H1734; first compound 0.06325 µM): 0.172 | relative viability (NCI-H1734; first compound 0.2 µM): 0.122 | relative viability (EPLC-272H; first compound 0.006325 µM): 0.831 | relative viability (EPLC-272H; first compound 0.02 µM): 0.782 | relative viability (EPLC-272H; first compound 0.06325 µM): 1.11 | relative viability (EPLC-272H; first compound 0.2 µM): 1.28 | relative viability (COR-L 105; first compound 0.002 µM): 0.729 | relative viability (COR-L 105; first compound 0.006325 µM): 0.696 | relative viability (COR-L 105; first compound 0.02 µM): 1.12 | relative viability (COR-L 105; first compound 0.06325 µM): 0.278 | relative viability (COR-L 105; first compound 0.2 µM): 0.234 | relative viability (NCI-H1975; first compound 0.002 µM): 1.17 | relative viability (NCI-H1975; first compound 0.006325 µM): 1.06 | relative viability (NCI-H1975; first compound 0.02 µM): 0.877 | relative viability (NCI-H1975; first compound 0.06325 µM): 0.218 | relative viability (NCI-H1975; first compound 0.2 µM): 0.142 | relative viability (HCC-15; first compound 0.002 µM): 0.647 | relative viability (HCC-15; first compound 0.006325 µM): 0.708 | relative viability (HCC-15; first compound 0.02 µM): 0.755 | relative viability (HCC-15; first compound 0.06325 µM): 0.44 | relative viability (HCC-15; first compound 0.2 µM): 0.419 | relative viability (NCI-H2347; first compound 0.002 µM): 0.794 | relative viability (NCI-H2347; first compound 0.02 µM): 0.483 | relative viability (NCI-H2347; first compound 0.06325 µM): 0.764 | relative viability (NCI-H2347; first compound 0.2 µM): 0.275 | relative viability (NCI-H2023; first compound 0.002 µM): 0.969 | relative viability (NCI-H2023; first compound 0.006325 µM): 1.11 | relative viability (NCI-H2023; first compound 0.02 µM): 0.99 | relative viability (NCI-H2023; first compound 0.06325 µM): 0.0933 | relative viability (NCI-H2023; first compound 0.2 µM): 0.0995 | relative viability (NCI-H1915; first compound 0.002 µM): 0.8 | relative viability (NCI-H1915; first compound 0.006325 µM): 0.793 | relative viability (NCI-H1915; first compound 0.02 µM): 0.803 | relative viability (NCI-H1915; first compound 0.06325 µM): 0.808 | relative viability (NCI-H1915; first compound 0.2 µM): 0.775 | relative viability (A-427; first compound 0.002 µM): 1.01 | relative viability (A-427; first compound 0.006325 µM): 0.913 | relative viability (A-427; first compound 0.02 µM): 0.497 | relative viability (A-427; first compound 0.06325 µM): 0.99 | relative viability (A-427; first compound 0.2 µM): 1.03
